Reference: patent US10023534B2 (BRISTOL-MYERS SQUIBB COMPANY, priority 2014, dated 2018)
Read-outs that look alike come from different tables or passages of the source.

Columns and labels:
human recombinant Btk = human recombinant Btk (Homo sapiens (Human), UniProt Q06187); assay: Human Recombinant Btk Enzyme Assay; assay type: biochemical
Experimental: Human Recombinant Btk Enzyme Assay
To V-bottom 384-well plates were added test compounds, human recombinant Btk (1 nM, Invitrogen Corporation), fluoresceinated peptide (1.5 μM), ATP (20 μM), and assay buffer (20 mM HEPES pH 7.4, 10 mM MgCl2, 0.015% Brij 35 surfactant and 4 mM DTT in 1.6% DMSO), with a final volume of 30 μL. After incubating at room temperature for 60 min, the reaction was terminated by adding 45 μL of 35 mM EDTA to each sample. The reaction mixture was analyzed on the Caliper LABCHIP® 3000 (Caliper, Hopkinton, Mass.) by electrophoretic separation of the fluorescent substrate and phosphorylated product. […] Compounds were dissolved at 10 mM in DMSO and evaluated at eleven concentrations.

Ramos RA1 B cells = assay: Ramos FLIPR Assay (intracellular calcium flux, anti-human IgM stimulated); assay type: cell-based
Experimental: Ramos FLIPR Assay […] Dye-loaded cells were pelleted (Beckmann GS-CKR, 1200 rpm, room temperature, 5 min) and resuspended at room temperature in RPMI minus phenol red with 50 mM HEPES and 10% FBS to a density of 1×10^6 cells/mL. 150 μL aliquots (150,000 cells/well) were plated into 96 well poly-D-lysine coated assay plates (BD 35 4640) and briefly centrifuged (Beckmann GS-CKR 800 rpm, 5 min, without brake). Next, 50 μL compound dilutions in 0.4% DMSO/RPMI minus phenol red+50 mM HEPES+10% FBS were added to the wells and the plate was incubated at room temperature in the dark for 1 hour. The assay plate was briefly centrifuged as above prior to measuring calcium levels. Using the […] (Molecular Devices), cells were stimulated by adding goat anti-human IgM (Invitrogen AHI0601) to 2.5 μg/mL. Changes in intracellular calcium concentrations were measured for 180 seconds and percent inhibition was determined relative to peak calcium levels seen in the presence of stimulation only. The Ramos assay measures the ability of a compound to move through the cell membrane into the cell interior. A lower IC50 value indicates a greater ability to move into the cell interior.

[1] = Table 3, ATP 20 μM, 60 min room temperature, read-out: Btk IC50 value
[2] = Ramos, Table 3, calcium flux, goat anti-human IgM 2.5 μg/mL, read-out: Ramos IC50 value
[3] = Homo sapiens, Ramos, Table 3, calcium flux, goat anti-human IgM 2.5 μg/mL, read-out: Ramos IC50 value
[4] = Table 4, Comparative Example, read-out: Comparative Example Btk IC50
[5] = Homo sapiens, Ramos, Table 4, Comparative Example, read-out: Comparative Example Ramos IC50
[6] = Homo sapiens, Ramos, Table 4, read-out: Example Ramos IC50

human recombinant Btk, sequence (Q06187 whole entry): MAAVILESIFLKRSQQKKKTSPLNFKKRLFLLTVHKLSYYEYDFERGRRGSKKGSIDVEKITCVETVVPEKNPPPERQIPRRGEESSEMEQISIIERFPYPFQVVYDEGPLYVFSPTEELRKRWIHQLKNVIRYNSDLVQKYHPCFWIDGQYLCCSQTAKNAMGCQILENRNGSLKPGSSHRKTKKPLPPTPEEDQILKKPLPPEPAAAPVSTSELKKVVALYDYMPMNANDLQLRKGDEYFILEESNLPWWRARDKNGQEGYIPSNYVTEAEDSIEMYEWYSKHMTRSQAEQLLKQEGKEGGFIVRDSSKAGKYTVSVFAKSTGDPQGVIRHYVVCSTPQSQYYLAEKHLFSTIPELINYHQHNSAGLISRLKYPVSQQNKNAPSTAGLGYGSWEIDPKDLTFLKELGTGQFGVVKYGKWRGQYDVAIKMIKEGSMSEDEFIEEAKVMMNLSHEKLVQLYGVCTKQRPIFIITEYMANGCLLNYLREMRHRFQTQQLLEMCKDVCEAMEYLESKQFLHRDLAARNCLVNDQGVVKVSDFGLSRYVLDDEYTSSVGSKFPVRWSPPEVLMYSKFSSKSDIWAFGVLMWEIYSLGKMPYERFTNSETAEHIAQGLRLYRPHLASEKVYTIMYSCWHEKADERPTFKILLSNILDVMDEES

In the case of `C=CC(=O)N1CCc2c(cccc2-c2c(F)cc(C(N)=O)c3[nH]c4c(c23)CC(F)(F)CC4)C1` (racemic) [Example 1, (RS)-5-(2-Acryloyl-1,2,3,4-tetrahydroisoquinolin-5-yl)-3,3,6-trifluoro-2,3,4,9-tetrahydro-1H-carbazole-8-carboxamide], the IC50 (human recombinant Btk; [1]) is reported as 0.18 nM and the IC50 (Ramos RA1 B cells; [2]) is reported as 25 nM.

Work on `C=CC(=O)N1CCOc2c(-c3c(F)cc(C(N)=O)c4[nH]c5ccccc5c34)cccc21` (racemic) [Example 3, (RS)-4-(4-acryloyl-3,4-dihydro-2H-benzo[b][1,4]oxazin-8-yl)-3-fluoro-9H-carbazole-1-carboxamide] yielded an IC50 (human recombinant Btk; [1]) of 0.075 nM and an IC50 (Ramos RA1 B cells; [2]) of 4.6 nM.

`C=CC(=O)N1CCSc2c(-c3c(F)cc(C(N)=O)c4[nH]c5ccccc5c34)cccc21` (racemic) [Example 13, (RS)-4-(4-acryloyl-3,4-dihydro-2H-benzo[b][1,4]thiazin-8-yl)-3-fluoro-9H-carbazole-1-carboxamide] gave an IC50 (human recombinant Btk; [1]) of 0.13 nM and an IC50 (Ramos RA1 B cells; [2]) of 9.2 nM.

For `C=CC(=O)N1CCc2c(cccc2-c2c(F)cc(C(N)=O)c3[nH]c4cc(CCO)ccc4c23)C1` (racemic) [Example 25, 4-(2-acryloyl-1,2,3,4-tetrahydroisoquinolin-5-yl)-3-fluoro-7-(2-hydroxyethyl)-9H-carbazole-1-carboxamide], the IC50 (human recombinant Btk; [1]) was 1.5 nM and the IC50 (Ramos RA1 B cells; [2]) was 28 nM.

In the case of `N#CN1CCc2c(cccc2-c2c(F)cc(C(N)=O)c3[nH]c4cc(CCO)ccc4c23)C1` (racemic) [Example 27, 4-(2-cyano-1,2,3,4-tetrahydroisoquinolin-5-yl)-3-fluoro-7-(2-hydroxyethyl)-9H-carbazole-1-carboxamide], the IC50 (human recombinant Btk; [1]) is reported as 4.8 nM and the IC50 (Ramos RA1 B cells; [2]) is reported as 142 nM.

For `C=CC(=O)N1CCc2c(cccc2-c2c(F)cc(C(N)=O)c3[nH]c4cc(C(=O)N(C)C)ccc4c23)C1` (racemic) [Example 28, 4-(2-acryloyl-1,2,3,4-tetrahydroisoquinolin-5-yl)-3-fluoro-N7,N7-dimethyl-9H-carbazole-1,7-dicarboxamide], the IC50 (human recombinant Btk; [1]) was 0.17 nM and the IC50 (Ramos RA1 B cells; [2]) was 17 nM.

For `C=CC(=O)N1CCc2c(cccc2-c2c(F)cc(C(N)=O)c3[nH]c4ccc(Cl)cc4c23)C1` (racemic) [Example 29, 4-(2-acryloyl-1,2,3,4-tetrahydroisoquinolin-5-yl)-6-chloro-3-fluoro-9H-carbazole-1-carboxamide], the IC50 (human recombinant Btk; [1]) was 0.26 nM and the IC50 (Ramos RA1 B cells; [2]) was 107 nM.

`C=CC(=O)N1CCc2c(cccc2-c2c(F)cc(C(N)=O)c3[nH]c4ccncc4c23)C1` (racemic) [Example 31, 9-(2-acryloyl-1,2,3,4-tetrahydroisoquinolin-5-yl)-8-fluoro-5H-pyrido[4,3-b]indole-6-carboxamide] gave an IC50 (human recombinant Btk; [1]) of 0.3 nM and an IC50 (Ramos RA1 B cells; [2]) of 13 nM.

For `C=CC(=O)N1CCc2c(cccc2-c2c(Cl)cc(C(N)=O)c3[nH]c4c(c23)CCCC4)C1` (racemic) [Example 32, 5-(2-acryloyl-1,2,3,4-tetrahydroisoquinolin-5-yl)-6-chloro-2,3,4,9-tetrahydro-1H-carbazole-8-carboxamide], the IC50 (human recombinant Btk; [1]) was 0.6 nM and the IC50 (Ramos RA1 B cells; [3]) was 46 nM.

`C=CC(=O)N1CCc2c(cccc2-c2c(Cl)cc(C(N)=O)c3[nH]c4c(c23)CNCC4)C1` (racemic) [Example 33, 9-(2-acryloyl-1,2,3,4-tetrahydroisoquinolin-5-yl)-8-chloro-2,3,4,5-tetrahydro-1H-pyrido[4,3-b]indole-6-carboxamide] showed an IC50 (human recombinant Btk; [1]) of 2.3 nM.

`C=CC(=O)N1CCc2c(cccc2-c2c(F)cc(C(N)=O)c3[nH]c4ccccc4c23)C1` (single isomer, unassigned) [Comparative Example 15, 4-(2-Acryloyl-1,2,3,4-tetrahydroisoquinolin-5-yl)-3-fluoro-9H-carbazole-1-carboxamide] was tested, and the IC50 (human recombinant Btk; [4]) was 4 nM and the IC50 (Ramos RA1 B cells; [5]) was 72 nM.

For `C=CC(=O)N1CCc2c(cccc2-c2c(F)cc(C(N)=O)c3[nH]c4c(c23)CC(F)(F)CC4)C1` (single isomer, unassigned) [Comparative Example 16, 5-(2-Acryloyl-1,2,3,4-tetrahydroisoquinolin-5-yl)-3,3,6-trifluoro-2,3,4,9-tetrahydro-1H-carbazole-8-carboxamide], the IC50 (human recombinant Btk; [4]) was 4.5 nM and the IC50 (Ramos RA1 B cells; [5]) was over 300 nM.

`C=CC(=O)N1CCc2c(cccc2-c2c(F)cc(C(N)=O)c3[nH]c4cc(C(F)(F)F)ccc4c23)C1` (single isomer, unassigned) [Comparative Example 17, 4-(2-Acryloyl-1,2,3,4-tetrahydroisoquinolin-5-yl)-3-fluoro-7-(trifluoromethyl)-9H-carbazole-1-carboxamide] was tested, and the IC50 (human recombinant Btk; [4]) was 14 nM and the IC50 (Ramos RA1 B cells; [5]) was over 300 nM.

Compound `C=CC(=O)N1CCOc2c(-c3c(F)cc(C(N)=O)c4[nH]c5ccccc5c34)cccc21` (single isomer, unassigned) [Comparative Example 18, 4-(4-Acryloyl-3,4-dihydro-2H-benzo[b][1,4]oxazin-8-yl)-3-fluoro-9H-carbazole-1-carboxamide] has an IC50 (human recombinant Btk; [4]) of 1.5 nM and an IC50 (Ramos RA1 B cells; [5]) of 65 nM.

In the case of `C=CC(=O)N1CCc2c(cccc2-c2c(F)cc(C(N)=O)c3[nH]c4c(c23)CC[C@H](C(C)(C)O)C4)C1` (single isomer, unassigned) [Comparative Example 19], the IC50 (Ramos RA1 B cells; [5]) is reported as over 300 nM.

With `C=CC(=O)N1CCc2c(cccc2-c2c(F)cc(C(N)=O)c3[nH]c4c(c23)CCC(C(F)(F)F)C4)C1` (single isomer, unassigned) [Comparative Example 20, 5-(2-Acryloyl-1,2,3,4-tetrahydroisoquinolin-5-yl)-6-fluoro-2-(trifluoromethyl)-2,3,4,9-tetrahydro-1H-carbazole-8-carboxamide] the IC50 (Ramos RA1 B cells; [5]) was over 300 nM.

`C=CC(=O)N1CCc2c(cccc2-c2c(F)cc(C(N)=O)c3[nH]c4c(c23)CCC(C(F)(F)F)C4)C1` (single isomer, unassigned) [Comparative Example 21, 5-(2-Acryloyl-1,2,3,4-tetrahydroisoquinolin-5-yl)-6-fluoro-2-(trifluoromethyl)-2,3,4,9-tetrahydro-1H-carbazole-8-carboxamide] gave an IC50 (Ramos RA1 B cells; Table 4, Comparative Example, read-out: Comparative Example Ramos IC50) of over 300 nM.

Compound `C=CC(=O)N1CCCOc2c(-c3c(F)cc(C(N)=O)c4[nH]c5cc(C(F)(F)F)ccc5c34)cccc21` (single isomer, unassigned) [Comparative Example 22, 4-(5-Acryloyl-2,3,4,5-tetrahydrobenzo[b][1,4]oxazepin-9-yl)-3-fluoro-7-(trifluoromethyl)-9H-carbazole-1-carboxamide] has an IC50 (human recombinant Btk; [4]) of 9.5 nM and an IC50 (Ramos RA1 B cells; [5]) of 300 nM.

For `C=CC(=O)N1CCSc2c(-c3c(F)cc(C(N)=O)c4[nH]c5ccccc5c34)cccc21` (single isomer, unassigned) [Comparative Example 23, 4-(4-Acryloyl-3,4-dihydro-2H-benzo[b][1,4]thiazin-8-yl)-3-fluoro-9H-carbazole-1-carboxamide], the IC50 (human recombinant Btk; [4]) was 4.4 nM and the IC50 (Ramos RA1 B cells; [5]) was 150 nM.

`C=CC(=O)N1CCc2c(cccc2-c2c(F)cc(C(N)=O)c3[nH]c4c(c23)CC[C@H](C(C)(C)O)C4)C1` (single isomer, unassigned) [Example 9] showed an IC50 (Ramos RA1 B cells; [3]) of 2.3 nM and an IC50 (Ramos RA1 B cells; [6]) of 2.3 nM.

With `C=CC(=O)N1CCc2c(cccc2-c2c(F)cc(C(N)=O)c3[nH]c4c(c23)CCC(C(F)(F)F)C4)C1` (single isomer, unassigned) [Example 10, 5-(2-Acryloyl-1,2,3,4-tetrahydroisoquinolin-5-yl)-6-fluoro-2-(trifluoromethyl)-2,3,4,9-tetrahydro-1H-carbazole-8-carboxamide] the IC50 (Ramos RA1 B cells; [3]) was 22.2 nM and the IC50 (Ramos RA1 B cells; [6]) was 22 nM.

For `C=CC(=O)N1CCc2c(cccc2-c2c(F)cc(C(N)=O)c3[nH]c4c(c23)CCC(C(F)(F)F)C4)C1` (single isomer, unassigned) [Example 11, 5-(2-Acryloyl-1,2,3,4-tetrahydroisoquinolin-5-yl)-6-fluoro-2-(trifluoromethyl)-2,3,4,9-tetrahydro-1H-carbazole-8-carboxamide], the IC50 (Ramos RA1 B cells; Table 3, calcium flux, goat anti-human IgM 2.5 μg/mL, read-out: Ramos IC50 value) was 16.3 nM and the IC50 (Ramos RA1 B cells; Table 4, read-out: Example Ramos IC50) was 16 nM.

Compound `C=CC(=O)N1CCc2c(cccc2-c2c(Cl)cc(C(N)=O)c3[nH]c4ccccc4c23)C1` (single isomer, unassigned) [Example 24] has an IC50 (Ramos RA1 B cells; [3]) of 3 nM.

Work on `C=CC(=O)N1CCc2c(cccc2-c2c(Cl)cc(C(N)=O)c3[nH]c4ccccc4c23)C1` [Example 30] yielded an IC50 (Ramos RA1 B cells; [3]) of 20 nM.
